Experimental data as given in PubChem BioAssay (NCI).
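Briefly, cells in 96-well plates were exposed to five compound concentrations for 48 h, and endpoints were estimated by linear interpolation. The concentration for 50% growth inhibition is given as GI50. TGI is the concentration that stops growth completely.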

Experiments:
Assay in all cases: NCI tumour cell line growth inhibition, 48 h
786-0 renal = test system: 786-0 renal
A498 renal = test system: A498 renal
A549 NSCLC = test system: A549 NSCLC
ACHN renal = test system: ACHN renal
BT-549 breast = test system: BT-549 breast
CAKI-1 renal = test system: CAKI-1 renal
CCRF-CEM leukemia = test system: CCRF-CEM leukemia
COLO 205 colon = test system: COLO 205 colon
DU-145 prostate = test system: DU-145 prostate
EKVX NSCLC = test system: EKVX NSCLC
HCC-2998 colon = test system: HCC-2998 colon
HCT-116 colon = test system: HCT-116 colon
HCT-15 colon = test system: HCT-15 colon
HL-60(TB) leukemia = test system: HL-60(TB) leukemia
HOP-62 NSCLC = test system: HOP-62 NSCLC
HOP-92 NSCLC = test system: HOP-92 NSCLC
HS 578T breast = test system: HS 578T breast
HT29 colon = test system: HT29 colon
IGROV1 ovarian = test system: IGROV1 ovarian
K-562 leukemia = test system: K-562 leukemia
KM12 colon = test system: KM12 colon
LOX IMVI melanoma = test system: LOX IMVI melanoma
M14 melanoma = test system: M14 melanoma
MALME-3M melanoma = test system: MALME-3M melanoma
MCF7 breast = test system: MCF7 breast
MDA-MB-231 breast = test system: MDA-MB-231 breast
MDA-MB-435 = test system: MDA-MB-435
MOLT-4 leukemia = test system: MOLT-4 leukemia
NCI-H226 lung = test system: NCI-H226 lung
NCI-H23 lung = test system: NCI-H23 lung
NCI-H460 lung = test system: NCI-H460 lung
NCI-H522 lung = test system: NCI-H522 lung
NCI/ADR-RES ovarian = test system: NCI/ADR-RES ovarian
OVCAR-3 ovarian = test system: OVCAR-3 ovarian
OVCAR-4 ovarian = test system: OVCAR-4 ovarian
OVCAR-5 ovarian = test system: OVCAR-5 ovarian
OVCAR-8 ovarian = test system: OVCAR-8 ovarian
PC-3 prostate = test system: PC-3 prostate
RPMI-8226 leukemia = test system: RPMI-8226 leukemia
RXF 393 renal = test system: RXF 393 renal
SF-268 CNS = test system: SF-268 CNS
SF-295 CNS = test system: SF-295 CNS
SF-539 CNS = test system: SF-539 CNS
SK-MEL-2 melanoma = test system: SK-MEL-2 melanoma
SK-MEL-28 melanoma = test system: SK-MEL-28 melanoma
SK-MEL-5 melanoma = test system: SK-MEL-5 melanoma
SK-OV-3 ovarian = test system: SK-OV-3 ovarian
SN12C renal = test system: SN12C renal
SNB-19 CNS = test system: SNB-19 CNS
SNB-75 CNS = test system: SNB-75 CNS
SR leukemia = test system: SR leukemia
SW-620 colon = test system: SW-620 colon
T-47D breast = test system: T-47D breast
TK-10 renal = test system: TK-10 renal
U251 CNS = test system: U251 CNS
UACC-257 melanoma = test system: UACC-257 melanoma
UACC-62 melanoma = test system: UACC-62 melanoma
UO-31 renal = test system: UO-31 renal
MDA-N = test system: MDA-N

COc1ccc(Cn2cc3c(c2)-c2oncc2CC3)cc1
GI50 (786-0 renal): 13.2 µM
TGI (786-0 renal): > 100 µM
GI50 (A498 renal): 1.74 µM
TGI (A498 renal): 9.74 µM
GI50 (A549 NSCLC): 7.26 µM
TGI (A549 NSCLC): > 74.4 µM
GI50 (ACHN renal): 11.6 µM
TGI (ACHN renal): > 100 µM
GI50 (BT-549 breast): 4.79 µM
TGI (BT-549 breast): 66.1 µM
GI50 (CAKI-1 renal): 6.24 µM
TGI (CAKI-1 renal): > 100 µM
GI50 (CCRF-CEM leukemia): 2.87 µM
TGI (CCRF-CEM leukemia): > 88.6 µM
GI50 (COLO 205 colon): 3.59 µM
TGI (COLO 205 colon): 14.5 µM
GI50 (DU-145 prostate): 4.46 µM
TGI (DU-145 prostate): 34.5 µM
GI50 (EKVX NSCLC): 12.7 µM
TGI (EKVX NSCLC): > 100 µM
GI50 (HCC-2998 colon): 5.98 µM
TGI (HCC-2998 colon): 27.5 µM
GI50 (HCT-116 colon): 3 µM
TGI (HCT-116 colon): > 25.7 µM
GI50 (HCT-15 colon): 4.33 µM
TGI (HCT-15 colon): > 70.6 µM
GI50 (HL-60(TB) leukemia): 1.72 µM
TGI (HL-60(TB) leukemia): 8.26 µM
GI50 (HOP-62 NSCLC): 9.64 µM
TGI (HOP-62 NSCLC): > 100 µM
GI50 (HOP-92 NSCLC): 5.14 µM
TGI (HOP-92 NSCLC): 37.3 µM
GI50 (HS 578T breast): 3 µM
TGI (HS 578T breast): 13.8 µM
GI50 (HT29 colon): 3.69 µM
TGI (HT29 colon): > 64.8 µM
GI50 (IGROV1 ovarian): 4.56 µM
TGI (IGROV1 ovarian): > 100 µM
GI50 (K-562 leukemia): 2.4 µM
TGI (K-562 leukemia): > 66.5 µM
GI50 (KM12 colon): 2.62 µM
TGI (KM12 colon): 20.7 µM
GI50 (LOX IMVI melanoma): 6.99 µM
TGI (LOX IMVI melanoma): > 100 µM
GI50 (M14 melanoma): 3.12 µM
TGI (M14 melanoma): 61.7 µM
GI50 (MALME-3M melanoma): 7.24 µM
TGI (MALME-3M melanoma): 54.5 µM
GI50 (MCF7 breast): 3.07 µM
TGI (MCF7 breast): > 100 µM
GI50 (MDA-MB-231 breast): 9.47 µM
TGI (MDA-MB-231 breast): > 100 µM
GI50 (MDA-MB-435): 0.635 µM
TGI (MDA-MB-435): 5.75 µM
GI50 (MOLT-4 leukemia): 2.82 µM
TGI (MOLT-4 leukemia): 22.2 µM
GI50 (NCI-H226 lung): 16 µM
TGI (NCI-H226 lung): > 100 µM
GI50 (NCI-H23 lung): 5.85 µM
TGI (NCI-H23 lung): > 67.5 µM
GI50 (NCI-H460 lung): 3.47 µM
TGI (NCI-H460 lung): 16.5 µM
GI50 (NCI-H522 lung): 3.24 µM
TGI (NCI-H522 lung): 16.7 µM
GI50 (NCI/ADR-RES ovarian): 2.86 µM
TGI (NCI/ADR-RES ovarian): 9.85 µM
GI50 (OVCAR-3 ovarian): 2.61 µM
TGI (OVCAR-3 ovarian): 6.51 µM
GI50 (OVCAR-4 ovarian): 6.53 µM
TGI (OVCAR-4 ovarian): > 29.8 µM
GI50 (OVCAR-5 ovarian): 8.6 µM
TGI (OVCAR-5 ovarian): > 100 µM
GI50 (OVCAR-8 ovarian): 9.34 µM
TGI (OVCAR-8 ovarian): > 100 µM
GI50 (PC-3 prostate): 5.26 µM
TGI (PC-3 prostate): 61.1 µM
GI50 (RPMI-8226 leukemia): 2.97 µM
TGI (RPMI-8226 leukemia): > 63.8 µM
GI50 (RXF 393 renal): 5.25 µM
TGI (RXF 393 renal): 28.1 µM
GI50 (SF-268 CNS): 8.19 µM
TGI (SF-268 CNS): > 100 µM
GI50 (SF-295 CNS): 4.08 µM
TGI (SF-295 CNS): 35.9 µM
GI50 (SF-539 CNS): 2.94 µM
TGI (SF-539 CNS): 14.9 µM
GI50 (SK-MEL-2 melanoma): 4.88 µM
TGI (SK-MEL-2 melanoma): 22.3 µM
GI50 (SK-MEL-28 melanoma): 4.08 µM
TGI (SK-MEL-28 melanoma): > 52.8 µM
GI50 (SK-MEL-5 melanoma): 3.21 µM
TGI (SK-MEL-5 melanoma): 12.6 µM
GI50 (SK-OV-3 ovarian): 4.92 µM
TGI (SK-OV-3 ovarian): > 82.1 µM
GI50 (SN12C renal): 10.1 µM
TGI (SN12C renal): > 100 µM
GI50 (SNB-19 CNS): 9.05 µM
TGI (SNB-19 CNS): > 100 µM
GI50 (SNB-75 CNS): 2.95 µM
TGI (SNB-75 CNS): 40.5 µM
GI50 (SR leukemia): 1.41 µM
TGI (SR leukemia): 5.38 µM
GI50 (SW-620 colon): 2.8 µM
TGI (SW-620 colon): > 100 µM
GI50 (T-47D breast): 5.09 µM
TGI (T-47D breast): > 100 µM
GI50 (TK-10 renal): 8.76 µM
TGI (TK-10 renal): 86.8 µM
GI50 (U251 CNS): 4.43 µM
TGI (U251 CNS): > 92 µM
GI50 (UACC-257 melanoma): 12.3 µM
TGI (UACC-257 melanoma): > 85.1 µM
GI50 (UACC-62 melanoma): 3.75 µM
TGI (UACC-62 melanoma): > 100 µM
GI50 (UO-31 renal): 5.16 µM
TGI (UO-31 renal): > 90.7 µM

O=c1[nH]c2nc3ccccc3nc2[nH]c1=O
TGI (786-0 renal): > 100 µM
TGI (A549 NSCLC): > 100 µM
TGI (ACHN renal): > 100 µM
TGI (CAKI-1 renal): > 100 µM
TGI (CCRF-CEM leukemia): > 100 µM
TGI (COLO 205 colon): > 100 µM
TGI (DU-145 prostate): > 100 µM
TGI (EKVX NSCLC): > 100 µM
TGI (HCC-2998 colon): > 100 µM
TGI (HCT-116 colon): > 100 µM
TGI (HCT-15 colon): > 100 µM
TGI (HL-60(TB) leukemia): > 100 µM
TGI (HOP-62 NSCLC): > 100 µM
TGI (HOP-92 NSCLC): > 100 µM
TGI (HS 578T breast): > 100 µM
TGI (HT29 colon): > 100 µM
TGI (IGROV1 ovarian): > 100 µM
TGI (K-562 leukemia): > 100 µM
TGI (KM12 colon): > 100 µM
TGI (LOX IMVI melanoma): > 100 µM
TGI (M14 melanoma): > 100 µM
TGI (MALME-3M melanoma): > 100 µM
TGI (MCF7 breast): > 100 µM
TGI (MDA-MB-231 breast): > 100 µM
TGI (MDA-MB-435): > 100 µM
TGI (MDA-N): > 100 µM
TGI (MOLT-4 leukemia): > 100 µM
TGI (NCI-H226 lung): > 100 µM
TGI (NCI-H23 lung): > 100 µM
TGI (NCI-H460 lung): > 100 µM
TGI (NCI-H522 lung): > 100 µM
TGI (NCI/ADR-RES ovarian): > 100 µM
TGI (OVCAR-3 ovarian): > 100 µM
TGI (OVCAR-4 ovarian): > 100 µM
TGI (OVCAR-5 ovarian): > 100 µM
TGI (OVCAR-8 ovarian): > 100 µM
TGI (PC-3 prostate): > 100 µM
TGI (RPMI-8226 leukemia): > 100 µM
TGI (RXF 393 renal): > 100 µM
TGI (SF-268 CNS): > 100 µM
TGI (SF-295 CNS): > 100 µM
TGI (SF-539 CNS): > 100 µM
TGI (SK-MEL-2 melanoma): > 100 µM
TGI (SK-MEL-28 melanoma): > 100 µM
TGI (SK-MEL-5 melanoma): > 100 µM
TGI (SK-OV-3 ovarian): > 100 µM
TGI (SN12C renal): > 100 µM
TGI (SNB-19 CNS): > 100 µM
TGI (SNB-75 CNS): > 100 µM
TGI (SR leukemia): > 100 µM
TGI (SW-620 colon): > 100 µM
TGI (T-47D breast): > 100 µM
TGI (TK-10 renal): > 100 µM
TGI (U251 CNS): > 100 µM
TGI (UACC-257 melanoma): > 100 µM
TGI (UACC-62 melanoma): > 100 µM
TGI (UO-31 renal): > 100 µM
